{"source": "patent US11053204B2", "about": "“Pyrimidinyloxy benzene derivatives as herbicides” (FMC Corporation, priority 2015, dated 2021)", "type_in_all_cases": "in vivo", "key": {"[1]": {"system": "sedge, umbrella (small-flower umbrella sedge, Cyperus difformis)", "assay": "Test B flooded paddy test, plant response rating", "conditions": "250 g ai/ha; Flood; scale of 0 to 100 where 0 is no effect and 100 is complete control; 13 to 15 days", "outline": "(§1)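 In-water treatment: compound dosed into 3 cm flood over soil, water level unchanged throughout. Controls run alongside; visual assessment at day 13–15.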"}, "rice (Oryza sativa)": {"system": "rice (Oryza sativa)", "assay": "Test B flooded paddy test, plant response rating", "conditions": "250 g ai/ha; Flood; scale of 0 to 100 where 0 is no effect and 100 is complete control; 13 to 15 days", "outline": "as §1"}, "[2]": {"system": "ducksalad (Heteranthera limosa)", "assay": "Test B flooded paddy test, plant response rating", "conditions": "250 g ai/ha; Flood; scale of 0 to 100 where 0 is no effect and 100 is complete control; 13 to 15 days", "outline": "as §1"}, "[3]": {"system": "surinam grass (Brachiaria decumbens)", "assay": "Test C preemergence, plant response rating"}, "[4]": {"system": "oat, wild (wild oat Avena fatua)", "assay": "Test C preemergence, plant response rating"}, "corn (Zea mays)": {"system": "corn (Zea mays)", "assay": "Test C preemergence, plant response rating", "conditions": "Preemergence", "outline": "(§2)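 Both timings shared one formulation, a non-phytotoxic solvent mixture with surfactant, and a greenhouse period of 13 to 15 d. Preemergence used seeded loam/sand or silt loam soil, postemergence used 2 to 18 cm plants; visual ratings ran from 0 (no effect) to 100 (complete control).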"}, "[5]": {"system": "wheat (winter wheat, Triticum aestivum)", "assay": "Test C preemergence, plant response rating", "conditions": "Preemergence", "outline": "as §2"}, "[6]": {"system": "nutsedge, yellow (yellow nutsedge, Cyperus esculentus)", "assay": "Test C preemergence, plant response rating", "conditions": "Preemergence", "outline": "as §2"}, "[7]": {"system": "morningglory (Ipomoea coccinea)", "assay": "Test C preemergence, plant response rating", "conditions": "Preemergence", "outline": "as §2"}, "[8]": {"system": "blackgrass (Alopecurus myosuroides)", "assay": "Test C preemergence, plant response rating", "conditions": "Preemergence", "outline": "as §2"}, "[9]": {"system": "oilseed rape (Brassica napus)", "assay": "Test C preemergence, plant response rating", "conditions": "Preemergence", "outline": "as §2"}, "[10]": {"system": "waterhemp (common waterhemp, Amaranthus rudis)", "assay": "Test C preemergence, plant response rating", "conditions": "Preemergence", "outline": "as §2"}, "[11]": {"system": "ragweed (common ragweed, Ambrosia elatior)", "assay": "Test C preemergence, plant response rating", "conditions": "Preemergence", "outline": "as §2"}, "[12]": {"system": "velvetleaf (Abutilon theophrasti)", "assay": "Test C preemergence, plant response rating", "conditions": "Preemergence", "outline": "as §2"}, "[13]": {"system": "ryegrass, Italian (Italian ryegrass, Lolium multiflorum)", "assay": "Test C preemergence, plant response rating", "conditions": "Preemergence", "outline": "as §2"}, "soybean (Glycine max)": {"system": "soybean (Glycine max)", "assay": "Test C preemergence, plant response rating", "conditions": "Preemergence", "outline": "as §2"}, "[14]": {"system": "crabgrass, large (large crabgrass, Digitaria sanguinalis)", "assay": "Test C preemergence, plant response rating", "conditions": "Preemergence", "outline": "as §2"}, "[15]": {"system": "foxtail, giant (giant foxtail, Setaria faberii)", "assay": "Test C preemergence, plant response rating", "conditions": "Preemergence", "outline": "as §2"}, "[16]": {"system": "lambsquarters (Chenopodium album)", "assay": "Test C preemergence, plant response rating", "conditions": "Preemergence", "outline": "as §2"}, "[17]": {"system": "wild poinsettia (Euphorbia heterophylla)", "assay": "Test C preemergence, plant response rating"}}, "data": [{"smiles": "FC(F)(F)CCCc1c(Br)cccc1Oc1ncc(Cl)cn1", "note": "[Compound 89]", "values": [{"measurement": "Plant response rating, Sedge, Umbrella", "setting": "[1]", "value": 95}, {"measurement": "Plant response rating, Rice", "setting": "rice (Oryza sativa)", "value": 40}, {"measurement": "Plant response rating, Ducksalad", "setting": "[2]", "value": 95}, {"measurement": "Plant response rating, Surinam Grass", "setting": "[3]; 31 g ai/ha, scale 0 to 100", "value": 35}, {"measurement": "Plant response rating, Surinam Grass", "setting": "[3]; 62 g ai/ha, scale 0 to 100", "value": 65}, {"measurement": "Plant response rating, Surinam Grass", "setting": "[3]; 125 g ai/ha, scale of 0 to 100", "value": 75}, {"measurement": "Plant response rating, Oat, Wild", "setting": "[4]; 31 g ai/ha, scale 0 to 100", "value": 10}, {"measurement": "Plant response rating, Oat, Wild", "setting": "[4]; 62 g ai/ha, scale 0 to 100", "value": 30}, {"measurement": "Plant response rating, Oat, Wild", "setting": "[4]; 125 g ai/ha, scale of 0 to 100", "value": 10}, {"measurement": "Plant response rating, Corn", "setting": "corn (Zea mays); 125 g ai/ha, scale of 0 to 100", "value": 10}, {"measurement": "Plant response rating, Corn", "setting": "corn (Zea mays); 16 g ai/ha, scale 0 to 100", "value": 0}, {"measurement": "Plant response rating, Corn", "setting": "corn (Zea mays); 31 g ai/ha, scale 0 to 100", "value": 0}, {"measurement": "Plant response rating, Corn", "setting": "corn (Zea mays); 62 g ai/ha, scale 0 to 100", "value": 0}, {"measurement": "Plant response rating, Wheat", "setting": "[5]; 125 g ai/ha, scale of 0 to 100", "value": 5}, {"measurement": "Plant response rating, Wheat", "setting": "[5]; 31 g ai/ha, scale 0 to 100", "value": 0}, {"measurement": "Plant response rating, Wheat", "setting": "[5]; 62 g ai/ha, scale 0 to 100", "value": 0}, {"measurement": "Plant response rating, Nutsedge, Yellow", "setting": "[6]; 125 g ai/ha, scale of 0 to 100", "value": 0}, {"measurement": "Plant response rating, Nutsedge, Yellow", "setting": "[6]; 31 g ai/ha, scale 0 to 100", "value": 0}, {"measurement": "Plant response rating, Nutsedge, Yellow", "setting": "[6]; 62 g ai/ha, scale 0 to 100", "value": 0}, {"measurement": "Plant response rating, Morningglory", "setting": "[7]; 125 g ai/ha, scale of 0 to 100", "value": 20}, {"measurement": "Plant response rating, Morningglory", "setting": "[7]; 31 g ai/ha, scale 0 to 100", "value": 0}, {"measurement": "Plant response rating, Morningglory", "setting": "[7]; 62 g ai/ha, scale 0 to 100", "value": 5}, {"measurement": "Plant response rating, Blackgrass", "setting": "[8]; 125 g ai/ha, scale of 0 to 100", "value": 90}, {"measurement": "Plant response rating, Blackgrass", "setting": "[8]; 16 g ai/ha, scale 0 to 100", "value": 5}, {"measurement": "Plant response rating, Blackgrass", "setting": "[8]; 31 g ai/ha, scale 0 to 100", "value": 15}, {"measurement": "Plant response rating, Blackgrass", "setting": "[8]; 62 g ai/ha, scale 0 to 100", "value": 85}, {"measurement": "Plant response rating, Oilseed Rape", "setting": "[9]; 125 g ai/ha, scale of 0 to 100", "value": 15}, {"measurement": "Plant response rating, Oilseed Rape", "setting": "[9]; 31 g ai/ha, scale 0 to 100", "value": 0}, {"measurement": "Plant response rating, Oilseed Rape", "setting": "[9]; 62 g ai/ha, scale 0 to 100", "value": 0}, {"measurement": "Plant response rating, Waterhemp", "setting": "[10]; 125 g ai/ha, scale of 0 to 100", "value": 100}, {"measurement": "Plant response rating, Waterhemp", "setting": "[10]; 31 g ai/ha, scale 0 to 100", "value": 85}, {"measurement": "Plant response rating, Waterhemp", "setting": "[10]; 62 g ai/ha, scale 0 to 100", "value": 100}, {"measurement": "Plant response rating, Ragweed", "setting": "[11]; 125 g ai/ha, scale of 0 to 100", "value": 50}, {"measurement": "Plant response rating, Ragweed", "setting": "[11]; 31 g ai/ha, scale 0 to 100", "value": 0}, {"measurement": "Plant response rating, Ragweed", "setting": "[11]; 62 g ai/ha, scale 0 to 100", "value": 5}, {"measurement": "Plant response rating, Velvetleaf", "setting": "[12]; 125 g ai/ha, scale of 0 to 100", "value": 60}, {"measurement": "Plant response rating, Velvetleaf", "setting": "[12]; 31 g ai/ha, scale 0 to 100", "value": 20}, {"measurement": "Plant response rating, Velvetleaf", "setting": "[12]; 62 g ai/ha, scale 0 to 100", "value": 25}, {"measurement": "Plant response rating, Ryegrass, Italian", "setting": "[13]; 125 g ai/ha, scale of 0 to 100", "value": 40}, {"measurement": "Plant response rating, Ryegrass, Italian", "setting": "[13]; 31 g ai/ha, scale 0 to 100", "value": 5}, {"measurement": "Plant response rating, Ryegrass, Italian", "setting": "[13]; 62 g ai/ha, scale 0 to 100", "value": 15}, {"measurement": "Plant response rating, Soybean", "setting": "soybean (Glycine max); 125 g ai/ha, scale of 0 to 100", "value": 10}, {"measurement": "Plant response rating, Soybean", "setting": "soybean (Glycine max); 31 g ai/ha, scale 0 to 100", "value": 5}, {"measurement": "Plant response rating, Soybean", "setting": "soybean (Glycine max); 62 g ai/ha, scale 0 to 100", "value": 5}, {"measurement": "Plant response rating, Crabgrass, Large", "setting": "[14]; 125 g ai/ha, scale of 0 to 100", "value": 98}, {"measurement": "Plant response rating, Crabgrass, Large", "setting": "[14]; 16 g ai/ha, scale 0 to 100", "value": 75}, {"measurement": "Plant response rating, Crabgrass, Large", "setting": "[14]; 31 g ai/ha, scale 0 to 100", "value": 98}, {"measurement": "Plant response rating, Crabgrass, Large", "setting": "[14]; 62 g ai/ha, scale 0 to 100", "value": 100}, {"measurement": "Plant response rating, Foxtail, Giant", "setting": "[15]; 125 g ai/ha, scale of 0 to 100", "value": 85}, {"measurement": "Plant response rating, Foxtail, Giant", "setting": "[15]; 31 g ai/ha, scale 0 to 100", "value": 5}, {"measurement": "Plant response rating, Foxtail, Giant", "setting": "[15]; 62 g ai/ha, scale 0 to 100", "value": 60}, {"measurement": "Plant response rating, Lambsquarters", "setting": "[16]; 125 g ai/ha, scale of 0 to 100", "value": 65}, {"measurement": "Plant response rating, Lambsquarters", "setting": "[16]; 31 g ai/ha, scale 0 to 100", "value": 0}, {"measurement": "Plant response rating, Lambsquarters", "setting": "[16]; 62 g ai/ha, scale 0 to 100", "value": 0}, {"measurement": "Plant response rating, Poinsettia, Wild", "setting": "[17]; 31 g ai/ha, scale 0 to 100", "value": 0}, {"measurement": "Plant response rating, Poinsettia, Wild", "setting": "[17]; 62 g ai/ha, scale 0 to 100", "value": 20}, {"measurement": "Plant response rating, Poinsettia, Wild", "setting": "[17]; 125 g ai/ha, scale of 0 to 100", "value": 40}]}]}
